Experimental data as given in patent US20070191402A1, “Method of searching substrate having antidiabetic activity” (KYOWA HAKKO KOGYO CO., LTD., priority 2002, published 2007).

Tests used:
MIN6 cell = assay: Insulin secretion test using MIN6 cell; assay type: cell-based, murine; settings: MIN6 cell; glucose 14.5 mmol/l or 8.4 mmol/l
Protocol: Culturing MIN6 cell and testing insulin secretion using MIN6 cell were carried out according to the method described in Diabetorogia, 36, 1139-1145 (1993).
In other words, the influence of a compound on the insulin secretion activity in the presence of 14.5 mmol/l glucose was assessed by assaying the amount of insulin in the cell culture supernatant collected as follows.
The MIN6 cell cultured in a 24-well plate was washed twice with 1 ml of buffer A [119 mmol/l NaCl, 4.74 mmol/l KCl, 2.54 mmol/l CaCl2, 1.19 mmol/l MgSO4, 1.19 mmol/l KH2PO4, 10 mmol/l 2-[4-(2-hydroxylethyl)-1-piperadinyl]ethanesulfonic acid, 0.1% BSA, pH 7.3] containing 2 mmol/l glucose. Subsequently, the resulting cell was incubated in 1 ml of the buffer A containing 2 mmol/l glucose at 37° C. for 45 minutes. The culture supernatant was exchanged with the buffer A (1 ml) containing test compounds of various concentrations and 8.4 mmol/l glucose and incubated at 37° C. for 45 minutes to collect the culture supernatant.
Antibody-reactive insulin secreted in the culture supernatant was assayed by radioimmunoassay [Methods in Investigative and Diagnostic Endocrinology, Vol. 2A, 2B, North-Holland Publishing Co., Amsterdam (1973)] after the culture supernatant was diluted with phosphate buffer containing 1% BSA, 0.1% Tween 20, 0.12% EDTA 2Na, and 0.1% sodium azide. A standard curve was prepared by using human insulin as the standard substance, and individual insulin values were calculated on the basis of the curve.

[1] = test system: pancreatic β cell (MIN6 cell); assay: Inhibition of binding of [3H]-labeled Compound 16 to pancreatic β cell; parameters: species or system murine; settings: test compound 1 μmol/l; 10 nmol/l [3H]-labeled Compound 16; MIN6 cell, 4° C.
Protocol: MIN6 cell cultured to almost confluence in a 24-well plate for cell culture (manufactured by Corning) was washed twice with KRH buffer (119 mmol/l NaCl, 4.74 mmol/KCl, 2.54 mmol/l calcium chloride (CaCl2), 1.19 mmol/l magnesium sulfate (MgSO4), 1.19 mmol/l potassium dihydrogen phosphate (KH2PO4), 10 mmol/l HEPES, 2 mmol/l glucose, 0.1 w/v % bovine serum albumin (BSA), pH 7.3). Subsequently, the KRH buffer was added at 1 ml per well, for preincubation at 37° C. for 45 minutes. After preincubation, the supernatant was discarded, and 0.15 ml of the KRH buffer, […] at 4° C. for one hour or longer until the reaction reached equilibrium. Subsequently, the cell was washed twice using the KRH buffer. The KRH buffer was added at 2 ml per well, which was then left to stand at room temperature for 20 minutes. The cell was again washed twice by using the KRH buffer. The radioactivity remaining in each well was counted with a liquid scintillation counter to determine the binding amount.
The difference between the binding amount of the [^3H]-labeled Compound 16 (total binding amount) under conditions with no addition of any test compound and the binding amount of the [^3H]-labeled Compound 16 (non-specific binding amount) under conditions in the presence of the Compound 16 at 10 μmol/l was defined as specific binding amount.
According to the method described in Example 5, a substance having anti-diabetic activity was screened for, using the inhibitory activity of the binding between pancreatic β cells and [^3H]-labeled Compound 16. A tested substance was dissolved in dimethylsulfoxide and then added to give a final concentration of 1 μmol/l. The radioactivity with addition of the unlabeled Compound 16 was defined as the non-specific binding amount and the radioactivity without addition of the unlabeled Compound 16 was defined as the total binding amount, and then the individual specific binding amounts were calculated by the method described in Example 6. Using the following formula, the binding inhibition ratio was determined. [formula]

p31 protein = target: T1, p31 protein (Mus musculus, UniProt Q99LB2); assay: Inhibition of binding of p31 protein from MIN6 solubilized membrane fraction to Compound 155-immobilized particle (SDS-PAGE); settings: 500 μmol/l tested substance, band on SDS-PAGE
T1 construct: endogenous in cells; host or cells: MIN6 (murine pancreatic beta cell line), digitonin-solubilized membrane fraction
T1 sequence (Q99LB2 20-279 limits assumed): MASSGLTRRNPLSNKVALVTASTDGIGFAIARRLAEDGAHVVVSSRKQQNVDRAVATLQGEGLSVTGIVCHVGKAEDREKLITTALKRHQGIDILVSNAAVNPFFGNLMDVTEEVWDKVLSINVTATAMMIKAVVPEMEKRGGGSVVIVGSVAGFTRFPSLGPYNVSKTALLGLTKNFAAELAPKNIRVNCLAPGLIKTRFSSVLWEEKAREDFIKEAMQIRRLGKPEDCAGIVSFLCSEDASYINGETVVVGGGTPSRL
Protocol: The solubilized membrane fraction of MIN6 as prepared in Example 12 was 10-fold diluted with the buffer B. The compound represented by Compound No. 16 (hereinafter referred to as “Compound 16”) at 500 μmol/l was added to 1 ml of the resulting dilution and gently stirred at 4° C. for 2 hours. As a control, the solubilized membrane fraction of MIN6 without addition of the Compound 16 was 10-fold diluted with buffer C [20 mmol/l HEPES, pH 7.4, 2 mmol/l EDTA, 150 mmol/l NaCl, 1% digitonin, 1 mmol/l PMSF, 1 μg/ml aprotinin], and 1 ml of the resulting dilution was gently stirred at 4° C. for 2 hours. Then, a particle immobilizing a compound represented by Compound No. 155 (hereinafter referred to as “Compound 155-immobilized particle”) as prepared in Example 8 was added to the solubilized membrane fraction solution with addition of the Compound 16 and the solubilized membrane fraction solution without addition of any tested substance and gently stirred at 4° C. for 30 minutes. Subsequently, the resulting solutions were centrifuged (12,000 rpm, one minute, 4° C.) to precipitate the particle to thereby remove the supernatants. Then, 750 μl of the buffer C was added and stirred for 3 seconds, followed by centrifugation (12,000 rpm, one minute, 4° C.), to precipitate the particle to remove the supernatant. Then, 750 μl of buffer D [20 mmol/l HEPES, pH 7.4, 2 mmol/l EDTA] was added and stirred for 3 seconds, followed by centrifugation (12,000 rpm, one minute, 4° C.), to precipitate the particle to remove the supernatant. Subsequently, 30 μl of an SDS-polyacrylamide gel electrophoresis sample buffer containing β-mercaptoethanol was added to solubilize the protein binding to Compound 155-immobilized particle, followed by SDS-polyacrylamide gel electrophoresis. Through the purification from the cell extract solution by adding Compound 16 via Compound 155-immobilized particle, p31 protein in which its specific binding to Compound 155-immobilized particle was inhibited by the compound represented by Compound No. 16 was found. […]

CCCN1C(=O)N2CC(Cc3ccccc3)N=C2c2[nH]c(C3CCCC3)nc21 (single isomer, unassigned) [compound 17]
Insulin secretory activity (%) (MIN6 cell): 15.8%
Binding inhibitory activity (%) [1]: 5.4%
inhibition of the binding of the p31 protein to the Compound 155-immobilized particle (p31 protein): cannot inhibit the binding of the p31 protein
